According to US8067408B2, “Dual pharmacophores—PDE4-muscarinic antagonistics” (priority 2008, dated 2011):

melting point [°C]	Compound
127 to 129	CCc1nc2c(cnn2CC)c(NC2CCOCC2)c1CNC(=O)c1cccc(C(=O)NCc2ccc(OC)c(-c3cccc(CN4C[C@@H](C)N[C@@H](C)C4)c3)c2)c1 [Example 210, N-{[1,6-Diethyl-4-(tetrahydro-2H-pyran-4-ylamino)-1H-pyrazolo[3,4-b]pyridin-5-yl]methyl}-N′-{[3′-{[(3R,5S)-3,5-dimethyl-1-piperazinyl]methyl}-6-(methyloxy)-3-biphenylyl]methyl}-1,3-benzenedicarboxamide]
109 to 112	CCc1nc2c(cnn2CC)c(NC2CCOCC2)c1CNC(=O)c1cccc(C(=O)NCc2ccc(C)c(-c3cccc(CN4C[C@@H](C)N[C@@H](C)C4)c3)c2)c1 [Example 211, N-{[1,6-Diethyl-4-(tetrahydro-2H-pyran-4-ylamino)-1H-pyrazolo[3,4-b]pyridin-5-yl]methyl}-N′-[(3′-{[(3R,5S)-3,5-dimethyl-1-piperazinyl]methyl}-6-methyl-3-biphenylyl)methyl]-1,3-benzenedicarboxamide]
115 to 118	CCc1nc2c(cnn2CC)c(NC2CCOCC2)c1CNC(=O)c1cccc(C(=O)NCc2ccc(C)c(-c3cccc(CN4CCN[C@@H](C)C4)c3)c2)c1 [Example 212, N-{[1,6-Diethyl-4-(tetrahydro-2H-pyran-4-ylamino)-1H-pyrazolo[3,4-b]pyridin-5-yl]methyl}-N′-[(6-methyl-3′-{[(3S)-3-methyl-1-piperazinyl]methyl}-3-biphenylyl)methyl]-1,3-benzenedicarboxamide]
110 to 112	CCc1nc2c(cnn2CC)c(NC2CCOCC2)c1CNC(=O)c1cccc(C(=O)NCc2ccc(OC)c(-c3cccc(CN4CCN[C@@H](C)C4)c3)c2)c1 [Example 213, N-{[1,6-Diethyl-4-(tetrahydro-2H-pyran-4-ylamino)-1H-pyrazolo[3,4-b]pyridin-5-yl]methyl}-N′-[(6-(methyloxy)-3′-{[(3S)-3-methyl-1-piperazinyl]methyl}-3-biphenylyl)methyl]-1,3-benzenedicarboxamide]
117 to 120	CCc1nc2c(cnn2CC)c(NC2CCOCC2)c1CNC(=O)c1cccc(C(=O)NCc2ccc(Cl)c(-c3cccc(CN4CCN[C@@H](C)C4)c3)c2)c1 [Example 214, N-[(6-Chloro-3′-{[(3S)-3-methyl-1-piperazinyl]methyl}-3-biphenylyl)methyl]-N′-{[1,6-diethyl-4-(tetrahydro-2H-pyran-4-ylamino)-1H-pyrazolo[3,4-b]pyridin-5-yl]methyl}-1,3-benzenedicarboxamide]
116 to 118	CCc1nc2c(cnn2CC)c(NC2CCOCC2)c1CNC(=O)c1cccc(C(=O)NCc2ccc(Cl)c(-c3cccc(CN4CCN[C@@H](C)C4)c3)c2)c1 [Example 215, N-[(6-Chloro-3′-{[(3S)-3-methyl-1-piperazinyl]methyl}-3-biphenylyl)methyl]-N′-{[1,6-diethyl-4-(tetrahydro-2H-pyran-4-ylamino)-1H-pyrazolo[3,4-b]pyridin-5-yl]methyl}-1,3-benzenedicarboxamide]
107 to 109	CCc1nc2c(cnn2CC)c(NC2CCOCC2)c1CNC(=O)c1cccc(C(=O)NCc2ccc(C)c(-c3cccc(CN4CCCN(C)CC4)c3)c2)c1 [Example 216, N-{[1,6-Diethyl-4-(tetrahydro-2H-pyran-4-ylamino)-1H-pyrazolo[3,4-b]pyridin-5-yl]methyl}-N′-({6-methyl-3′-[(4-methylhexahydro-1H-1,4-diazepin-1-yl)methyl]-3-biphenylyl}methyl)-1,3-benzenedicarboxamide]
116 to 119	CCc1nc2c(cnn2CC)c(NC2CCOCC2)c1CNC(=O)c1cccc(C(=O)NCc2ccc(OC)c(-c3cccc(CN4CCCN(C)CC4)c3)c2)c1 [Example 217, N-{[1,6-Diethyl-4-(tetrahydro-2H-pyran-4-ylamino)-1H-pyrazolo[3,4-b]pyridin-5-yl]methyl}-N′-{[3′-[(4-methylhexahydro-1H-1,4-diazepin-1-yl)methyl]-6-(methyloxy)-3-biphenylyl]methyl}-1,3-benzenedicarboxamide]
105 to 107	CCc1nc2c(cnn2CC)c(NC2CCOCC2)c1CNC(=O)c1cccc(C(=O)NCc2ccc(Cl)c(-c3cccc(CN4CCCN(C)CC4)c3)c2)c1 [Example 218, N-({6-Chloro-3′-[(4-methylhexahydro-1H-1,4-diazepin-1-yl)methyl]-3-biphenylyl}methyl)-N′-{[1,6-diethyl-4-(tetrahydro-2H-pyran-4-ylamino)-1H-pyrazolo[3,4-b]pyridin-5-yl]methyl}-1,3-benzenedicarboxamide]
112 to 114	CCc1nc2c(cnn2CC)c(NC2CCOCC2)c1CNC(=O)c1cccc(C(=O)NCc2ccc(Cl)c(-c3cccc(CN4CCN(C)CC4)c3)c2)c1 [Example 219, N-({6-Chloro-3′-[(4-methyl-1-piperazinyl)methyl]-3-biphenylyl}methyl)-N′-{[1,6-diethyl-4-(tetrahydro-2H-pyran-4-ylamino)-1H-pyrazolo[3,4-b]pyridin-5-yl]methyl}-1,3-benzenedicarboxamide]
121 to 124	CCc1nc2c(cnn2CC)c(NC2CCOCC2)c1CNC(=O)c1cccc(C(=O)NCc2ccc(Cl)c(-c3cccc(CN4C[C@@H](C)N[C@@H](C)C4)c3)c2)c1 [Example 220, N-[(6-Chloro-3′-{[(3R,5S)-3,5-dimethyl-1-piperazinyl]methyl}-3-biphenylyl)methyl]-N′-{[1,6-diethyl-4-(tetrahydro-2H-pyran-4-ylamino)-1H-pyrazolo[3,4-b]pyridin-5-yl]methyl}-1,3-benzenedicarboxamide]
116 to 119	CCc1nc2c(cnn2CC)c(NC2CCOCC2)c1CNC(=O)c1cccc(C(=O)NCc2ccc(Cl)c(-c3cccc(CN4CCCNCC4)c3)c2)c1 [Example 221, N-{[6-Chloro-3′-(hexahydro-1H-1,4-diazepin-1-ylmethyl)-3-biphenylyl]methyl}-N′-{[1,6-diethyl-4-(tetrahydro-2H-pyran-4-ylamino)-1H-pyrazolo[3,4-b]pyridin-5-yl]methyl}-1,3-benzenedicarboxamide]
127 to 130	CCc1nc2c(cnn2CC)c(NC2CCOCC2)c1CNC(=O)c1cccc(C(=O)NCc2ccc(Cl)c(-c3cccc(CN4CCNCC4)c3)c2)c1 [Example 222, N-{[6-Chloro-3′-(1-piperazinylmethyl)-3-biphenylyl]methyl}-N′-{[1,6-diethyl-4-(tetrahydro-2H-pyran-4-ylamino)-1H-pyrazolo[3,4-b]pyridin-5-yl]methyl}-1,3-benzenedicarboxamide]
145 to 149	CCc1nc2c(cnn2CC)c(NC2CCOCC2)c1CNC(=O)c1cccc(C(=O)NCc2ccc(Cl)c(-c3cccc(CN4C[C@@H]5C[C@H]4CN5)c3)c2)c1 [Example 223, N-({6-Chloro-3′-[(1S,4S)-2,5-diazabicyclo [2.2.1]hept-2-ylmethyl]-3-biphenylyl}methyl)-N′-{[1,6-diethyl-4-(tetrahydro-2H-pyran-4-ylamino)-1H-pyrazolo[3,4-b]pyridin-5-yl]methyl}-1,3-benzenedicarboxamide]
119 to 121	CCc1nc2c(cnn2CC)c(NC2CCOCC2)c1CNC(=O)c1cccc(C(=O)NCc2cc(Cl)cc(-c3cccc(CN4CCN[C@@H](C)C4)c3)c2)c1 [Example 224, N-[(5-Chloro-3′-{[(3S)-3-methyl-1-piperazinyl]methyl}-3-biphenylyl)methyl]-N′-{[1,6-diethyl-4-(tetrahydro-2H-pyran-4-ylamino)-1H-pyrazolo[3,4-b]pyridin-5-yl]methyl}-1,3-benzenedicarboxamide]
116 to 118	CCc1nc2c(cnn2CC)c(NC2CCOCC2)c1CNC(=O)c1cccc(C(=O)NCc2cc(Cl)cc(-c3cccc(CN4CCN(C)CC4)c3)c2)c1 [Example 422, N-({5-Chloro-3′-[(4-methyl-1-piperazinyl)methyl]-3-biphenylyl}methyl)-N′-{[1,6-diethyl-4-(tetrahydro-2H-pyran-4-ylamino)-1H-pyrazolo[3,4-b]pyridin-5-yl]methyl}-1,3-benzenedicarboxamide]
121 to 123	CCc1nc2c(cnn2CC)c(NC2CCOCC2)c1CNC(=O)c1cc(C)cc(C(=O)NCc2ccc(OC)c(-c3cccc(CN4CCN[C@@H](C)C4)c3)c2)c1 [Example 423, N-{[1,6-Diethyl-4-(tetrahydro-2H-pyran-4-ylamino)-1H-pyrazolo[3,4-b]pyridin-5-yl]methyl}-5-methyl-N′-[(6-(methyloxy)-3′-{[(3S)-3-methyl-1-piperazinyl]methyl}-3-biphenylyl)methyl]-1,3-benzenedicarboxamide]
119 to 122	CCc1nc2c(cnn2CC)c(NC2CCOCC2)c1CNC(=O)c1cccc(C(=O)NCc2cc(Cl)cc(-c3cccc(CN4CCNCC4)c3)c2)c1 [Example 424, N-{[5-Chloro-3′-(1-piperazinylmethyl)-3-biphenylyl]methyl}-N′-{[1,6-diethyl-4-(tetrahydro-2H-pyran-4-ylamino)-1H-pyrazolo[3,4-b]pyridin-5-yl]methyl}-1,3-benzenedicarboxamide]
119 to 121	CCc1nc2c(cnn2CC)c(NC2CCOCC2)c1CNC(=O)c1cc(C)cc(C(=O)NCc2cccc(-c3cccc(CC4CCN(C)CC4)c3)c2)c1 [Example 425, N-{[1,6-Diethyl-4-(tetrahydro-2H-pyran-4-ylamino)-1H-pyrazolo[3,4-b]pyridin-5-yl]methyl}-5-methyl-N′-({3′-[(1-methyl-4-piperidinyl)methyl]-3-biphenylyl}methyl)-1,3-benzenedicarboxamide]
130 to 132	CCc1nc2c(cnn2CC)c(NC2CCOCC2)c1CNC(=O)c1cc(C)cc(C(=O)NCc2cccc(-c3cccc(CC4CCNCC4)c3)c2)c1 [Example 426, N-{[1,6-Diethyl-4-(tetrahydro-2H-pyran-4-ylamino)-1H-pyrazolo[3,4-b]pyridin-5-yl]methyl}-5-methyl-N′-{[3′-(4-piperidinylmethyl)-3-biphenylyl]methyl}-1,3-benzenedicarboxamide]
115 to 117	CCc1nc2c(cnn2CC)c(NC2CCOCC2)c1CNC(=O)c1cc(C)cc(C(=O)NCc2ccc(OC)c(-c3cccc(CC4CCN(C)CC4)c3)c2)c1 [Example 427, N-{[1,6-Diethyl-4-(tetrahydro-2H-pyran-4-ylamino)-1H-pyrazolo[3,4-b]pyridin-5-yl]methyl}-5-methyl-N′-({6-(methyloxy)-3′-[(1-methyl-4-piperidinyl)methyl]-3-biphenylyl}methyl)-1,3-benzenedicarboxamide]
